According to US10314823B2, “Substituted 1,2-dihydro-3H-pyrrolo[1,2-c]imidazol-3-one antibacterial compounds” (IDORSIA PHARMACEUTICALS LTD, priority 2015, dated 2019):
In brackets after ≈: the same amount, converted by molar mass.

How the values were obtained:
Test in all cases: Bacterial growth minimal inhibitory concentration (CLSI broth microdilution)
Type in all cases: cell-based
E. coli ATCC25922 = conditions: quinolone-sensitive strain, cation-adjusted Mueller-Hinton Broth; for MIC: Escherichia coli, ATCC25922
Description: (§1) Minimal Inhibitory Concentrations (MICs; mg/L) were determined in cation-adjusted Mueller-Hinton Broth by a microdilution method following the description given in “Methods for Dilution Antimicrobial Susceptibility Tests for Bacteria that Grow Aerobically”, Approved standard, 7th ed., Clinical and Laboratory Standards Institute (CLSI) Document M7-A7, Wayne, Pa., USA (2006).
(§2) All Reference Example compounds were tested against several Gram-negative bacteria. K. pneumoniae A-651 is a multiply resistant strain (in particular quinolone-resistant), while E. coli ATCC25922 and P. aeruginosa ATCC27853 are quinolone-sensitive strains. The corresponding antibacterial test results are given in Table 1 hereafter (MICs in mg/L).

K. pneumoniae A-651 = conditions: multiply resistant strain (in particular quinolone-resistant), cation-adjusted Mueller-Hinton Broth; for MIC: Klebsiella pneumoniae, A651
Description: as §1, §2

P. aeruginosa ATCC27853 = conditions: quinolone-sensitive strain, cation-adjusted Mueller-Hinton Broth; for MIC: Pseudomonas aeruginosa, ATCC27853
Description: as §1, §2

In the case of `C[C@@](CCN1Cc2cc(C#CC#CCN3CCOC3=O)cn2C1=O)(C(=O)NO)S(C)(=O)=O` [Example 9, (2R)—N-hydroxy-2-methyl-2-(methylsulfonyl)-4-(3-oxo-6-(5-(2-oxooxazolidin-3-yl)penta-1,3-diyn-1-yl)-1H-pyrrolo[1,2-c]imidazol-2(3H)-yl)butanamide], the MIC (E. coli ATCC25922) is reported as 2 µg/mL (≈ 4.32 µM), the MIC (K. pneumoniae A-651) is reported as 4 µg/mL (≈ 8.65 µM) and the MIC (P. aeruginosa ATCC27853) is reported as 8 µg/mL (≈ 17.3 µM).

`C[C@@](CCN1Cc2cc(C#Cc3ccc(COC(=O)N4CC(O)C4)cc3)cn2C1=O)(C(=O)NO)S(C)(=O)=O` [Example 10, (3R)-4-((2-(4-(hydroxyamino)-3-methyl-3-(methylsulfonyl)-4-oxobutyl)-3-oxo-2,3-dihydro-1H-pyrrolo[1,2-c]imidazol-6-yl)ethynyl)benzyl 3-hydroxyazetidine-1-carboxylate] showed an MIC (E. coli ATCC25922) of 0.25 µg/mL (≈ 0.459 µM), an MIC (K. pneumoniae A-651) of 0.25 µg/mL (≈ 0.459 µM) and an MIC (P. aeruginosa ATCC27853) of 1 µg/mL (≈ 1.84 µM).

`CN(CCO)C(=O)OCc1ccc(C#Cc2cc3n(c2)C(=O)N(CC[C@](C)(C(=O)NO)S(C)(=O)=O)C3)cc1` [Example 11, (3R)-4-((2-(4-(hydroxyamino)-3-methyl-3-(methylsulfonyl)-4-oxobutyl)-3-oxo-2,3-dihydro-1H-pyrrolo[1,2-c]imidazol-6-yl)ethynyl)benzyl (2-hydroxyethyl)(methyl)carbamate] was tested, and the MIC (E. coli ATCC25922) was 0.5 µg/mL (≈ 0.915 µM), the MIC (K. pneumoniae A-651) was 0.5 µg/mL (≈ 0.915 µM) and the MIC (P. aeruginosa ATCC27853) was 2 µg/mL (≈ 3.66 µM).

Work on `C[C@@](CCN1Cc2cc(C#Cc3ccc(CN4CCC(N)C(F)(F)C4)cc3)cn2C1=O)(C(=O)NO)S(C)(=O)=O` (stereo partly drawn) [Example 14, (2R)-4-(6-((4-((4-amino-3,3-difluoropiperidin-1-yl)methyl)phenyl)ethynyl)-3-oxo-1H-pyrrolo[1,2-c]imidazol-2(3H)-yl)-N-hydroxy-2-methyl-2-(methylsulfonyl)butanamide] yielded an MIC (E. coli ATCC25922) of 0.5 µg/mL (≈ 0.887 µM), an MIC (K. pneumoniae A-651) of 2 µg/mL (≈ 3.55 µM) and an MIC (P. aeruginosa ATCC27853) of 1 µg/mL (≈ 1.77 µM).

Work on `C[C@@](CCN1Cc2cc(C#Cc3ccc(C4(F)CNC4)cc3)cn2C1=O)(C(=O)NO)S(C)(=O)=O` [Example 15, (2R)-4-(6-((4-(3-fluoroazetidin-3-yl)phenyl)ethynyl)-3-oxo-1H-pyrrolo[1,2-c]imidazol-2(3H)-yl)-N-hydroxy-2-methyl-2-(methylsulfonyl)butanamide] yielded an MIC (E. coli ATCC25922) of 0.5 µg/mL (≈ 1.02 µM), an MIC (K. pneumoniae A-651) of 2 µg/mL (≈ 4.09 µM) and an MIC (P. aeruginosa ATCC27853) of 1 µg/mL (≈ 2.05 µM).

`C[C@@](CCN1Cc2cc(C#Cc3ccc(C4(F)CN(C5COC5)C4)cc3)cn2C1=O)(C(=O)NO)S(C)(=O)=O` [Example 16, (2R)-4-(6-((4-(3-fluoro-1-(oxetan-3-yl)azetidin-3-yl)phenyl)ethynyl)-3-oxo-1H-pyrrolo[1,2-c]imidazol-2(3H)-yl)-N-hydroxy-2-methyl-2-(methylsulfonyl)butanamide] gave an MIC (E. coli ATCC25922) of 0.25 µg/mL (≈ 0.459 µM), an MIC (K. pneumoniae A-651) of 0.5 µg/mL (≈ 0.918 µM) and an MIC (P. aeruginosa ATCC27853) of 1 µg/mL (≈ 1.84 µM).

`CN1CCN(C(=O)OCc2ccc(C#Cc3cc4n(c3)C(=O)N(CC[C@](C)(C(=O)NO)S(C)(=O)=O)C4)cc2)CC1` [Example 17, (3R)-4-((2-(4-(hydroxyamino)-3-methyl-3-(methylsulfonyl)-4-oxobutyl)-3-oxo-2,3-dihydro-1H-pyrrolo[1,2-c]imidazol-6-yl)ethynyl)benzyl 4-methylpiperazine-1-carboxylate] showed an MIC (E. coli ATCC25922) of 0.25 µg/mL (≈ 0.437 µM), an MIC (K. pneumoniae A-651) of 0.5 µg/mL (≈ 0.875 µM) and an MIC (P. aeruginosa ATCC27853) of 2 µg/mL (≈ 3.5 µM).

`C[C@@](CCN1Cc2cc(C#CC#CC3(F)CNC3)cn2C1=O)(C(=O)NO)S(C)(=O)=O` [Example 18, (2R)-4-(6-((3-fluoroazetidin-3-yl)buta-1,3-diyn-1-yl)-3-oxo-1H-pyrrolo[1,2-c]imidazol-2(3H)-yl)-N-hydroxy-2-methyl-2-(methylsulfonyl)butanamide] showed an MIC (E. coli ATCC25922) of 2 µg/mL (≈ 4.58 µM), an MIC (K. pneumoniae A-651) of 4 µg/mL (≈ 9.16 µM) and an MIC (P. aeruginosa ATCC27853) of 2 µg/mL (≈ 4.58 µM).

`C[C@@](CCN1Cc2cc(C#CC#CC3(F)CN(C4COC4)C3)cn2C1=O)(C(=O)NO)S(C)(=O)=O` [Example 19, (2R)-4-(6-((3-fluoro-1-(oxetan-3-yl)azetidin-3-yl)buta-1,3-diyn-1-yl)-3-oxo-1H-pyrrolo[1,2-c]imidazol-2(3H)-yl)-N-hydroxy-2-methyl-2-(methylsulfonyl)butanamide] was tested, and the MIC (E. coli ATCC25922) was 0.25 µg/mL (≈ 0.508 µM), the MIC (K. pneumoniae A-651) was 1 µg/mL (≈ 2.03 µM) and the MIC (P. aeruginosa ATCC27853) was 2 µg/mL (≈ 4.06 µM).

`CN1CC(F)(c2ccc(C#Cc3cc4n(c3)C(=O)N(CC[C@](C)(C(=O)NO)S(C)(=O)=O)C4)cc2)C1` [Example 20, (2R)-4-(6-((4-(3-fluoro-1-methylazetidin-3-yl)phenyl)ethynyl)-3-oxo-1H-pyrrolo[1,2-c]imidazol-2(3H)-yl)-N-hydroxy-2-methyl-2-(methylsulfonyl)butanamide] gave an MIC (E. coli ATCC25922) of 0.125 µg/mL (≈ 0.249 µM), an MIC (K. pneumoniae A-651) of 0.25 µg/mL (≈ 0.497 µM) and an MIC (P. aeruginosa ATCC27853) of 1 µg/mL (≈ 1.99 µM).

`CN(C)C1(C#CC#Cc2cc3n(c2)C(=O)N(CC[C@](C)(C(=O)NO)S(C)(=O)=O)C3)CC1` [Example 21, (2R)-4-(6-((1-(dimethylamino)cyclopropyl)buta-1,3-diyn-1-yl)-3-oxo-1H-pyrrolo[1,2-c]imidazol-2(3H)-yl)-N-hydroxy-2-methyl-2-(methylsulfonyl)butanamide] showed an MIC (E. coli ATCC25922) of 0.5 µg/mL (≈ 1.12 µM), an MIC (K. pneumoniae A-651) of 0.5 µg/mL (≈ 1.12 µM) and an MIC (P. aeruginosa ATCC27853) of 0.5 µg/mL (≈ 1.12 µM).

With `C[C@@](CCN1Cc2cc(C#CC#CC3(COC(=O)N4CC(O)C4)CC3)cn2C1=O)(C(=O)NO)S(C)(=O)=O` [Example 22, (3R)-(1-((2-(4-(hydroxyamino)-3-methyl-3-(methylsulfonyl)-4-oxobutyl)-3-oxo-2,3-dihydro-1H-pyrrolo[1,2-c]imidazol-6-yl)buta-1,3-diyn-1-yl)cyclopropyl)methyl 3-hydroxyazetidine-1-carboxylate] the MIC (E. coli ATCC25922) was 1 µg/mL (≈ 1.88 µM), the MIC (K. pneumoniae A-651) was 4 µg/mL (≈ 7.51 µM) and the MIC (P. aeruginosa ATCC27853) was 4 µg/mL (≈ 7.51 µM).

`CN1CCN(C(=O)OCC2(C#CC#Cc3cc4n(c3)C(=O)N(CC[C@](C)(C(=O)NO)S(C)(=O)=O)C4)CC2)CC1` [Example 23, (3R)-(1-((2-(4-(hydroxyamino)-3-methyl-3-(methylsulfonyl)-4-oxobutyl)-3-oxo-2,3-dihydro-1H-pyrrolo[1,2-c]imidazol-6-yl)buta-1,3-diyn-1-yl)cyclopropyl)methyl 4-methylpiperazine-1-carboxylate] showed an MIC (E. coli ATCC25922) of 4 µg/mL (≈ 7.15 µM), an MIC (K. pneumoniae A-651) of 4 µg/mL (≈ 7.15 µM) and an MIC (P. aeruginosa ATCC27853) of 8 µg/mL (≈ 14.3 µM).

With `C[C@@](CCN1Cc2cc(C#CC#CCOC(=O)N3CC(O)C3)cn2C1=O)(C(=O)NO)S(C)(=O)=O` [Example 24, (3R)-5-(2-(4-(hydroxyamino)-3-methyl-3-(methylsulfonyl)-4-oxobutyl)-3-oxo-2,3-dihydro-1H-pyrrolo[1,2-c]imidazol-6-yl)penta-2,4-diyn-1-yl 3-hydroxyazetidine-1-carboxylate] the MIC (E. coli ATCC25922) was 0.5 µg/mL (≈ 1.02 µM), the MIC (K. pneumoniae A-651) was 1 µg/mL (≈ 2.03 µM) and the MIC (P. aeruginosa ATCC27853) was 1 µg/mL (≈ 2.03 µM).

`C[C@@](CCN1Cc2cc(C#Cc3ccc(OCCS(C)(=O)=O)cc3)cn2C1=O)(C(=O)NO)S(C)(=O)=O` [Example 25, (2R)—N-hydroxy-2-methyl-2-(methylsulfonyl)-4-(6-((4-(2-(methylsulfonyl)ethoxy)phenyl)ethynyl)-3-oxo-1H-pyrrolo[1,2-c]imidazol-2(3H)-yl)butanamide] showed an MIC (E. coli ATCC25922) of 0.125 µg/mL (≈ 0.233 µM), an MIC (K. pneumoniae A-651) of 0.5 µg/mL (≈ 0.93 µM) and an MIC (P. aeruginosa ATCC27853) of 1 µg/mL (≈ 1.86 µM).

`C[C@@](CCN1Cc2cc(C#Cc3ccc(CNC(=O)OC4CNC4)cc3)cn2C1=O)(C(=O)NO)S(C)(=O)=O` [Example 26, azetidin-3-yl (3R)-(4-((2-(4-(hydroxyamino)-3-methyl-3-(methylsulfonyl)-4-oxobutyl)-3-oxo-2,3-dihydro-1H-pyrrolo[1,2-c]imidazol-6-yl)ethynyl)benzyl)carbamate] gave an MIC (E. coli ATCC25922) of 8 µg/mL (≈ 14.7 µM), an MIC (K. pneumoniae A-651) of 8 µg/mL (≈ 14.7 µM) and an MIC (P. aeruginosa ATCC27853) of 4 µg/mL (≈ 7.36 µM).

`CN1CC(OC(=O)NCc2ccc(C#Cc3cc4n(c3)C(=O)N(CC[C@](C)(C(=O)NO)S(C)(=O)=O)C4)cc2)C1` [Example 27, 1-methylazetidin-3-yl (3R)-(4-((2-(4-(hydroxyamino)-3-methyl-3-(methylsulfonyl)-4-oxobutyl)-3-oxo-2,3-dihydro-1H-pyrrolo[1,2-c]imidazol-6-yl)ethynyl)benzyl)carbamate] showed an MIC (E. coli ATCC25922) of 2 µg/mL (≈ 3.59 µM), an MIC (K. pneumoniae A-651) of 4 µg/mL (≈ 7.17 µM) and an MIC (P. aeruginosa ATCC27853) of 8 µg/mL (≈ 14.3 µM).

Work on `C[C@@](CCN1Cc2cc(C#CC#C[C@@H]3C[C@H]3CN3CCOCC3)cn2C1=O)(C(=O)NO)S(C)(=O)=O` [Example 29, (2R)—N-hydroxy-2-methyl-2-(methylsulfonyl)-4-(6-(((1R,2R)-2-(morpholinomethyl)cyclopropyl)buta-1,3-diyn-1-yl)-3-oxo-1H-pyrrolo[1,2-c]imidazol-2(3H)-yl)butanamide] yielded an MIC (E. coli ATCC25922) of 0.25 µg/mL (≈ 0.497 µM), an MIC (K. pneumoniae A-651) of 0.5 µg/mL (≈ 0.995 µM) and an MIC (P. aeruginosa ATCC27853) of 2 µg/mL (≈ 3.98 µM).

With `CN1CC(C#CC#Cc2cc3n(c2)C(=O)N(CC[C@](C)(C(=O)NO)S(C)(=O)=O)C3)C1` [Example 30, (2R)—N-hydroxy-2-methyl-4-(6-((1-methylazetidin-3-yl)buta-1,3-diyn-1-yl)-3-oxo-1H-pyrrolo[1,2-c]imidazol-2(3H)-yl)-2-(methylsulfonyl)butanamide] the MIC (E. coli ATCC25922) was 0.5 µg/mL (≈ 1.16 µM), the MIC (K. pneumoniae A-651) was 0.5 µg/mL (≈ 1.16 µM) and the MIC (P. aeruginosa ATCC27853) was 0.5 µg/mL (≈ 1.16 µM).

For `C[C@@](CCN1Cc2cc(C#CC#CC3CNC3)cn2C1=O)(C(=O)NOC1CCCCO1)S(C)(=O)=O` (stereo partly drawn) [Example 31, (2R)-4-(6-(azetidin-3-ylbuta-1,3-diyn-1-yl)-3-oxo-1H-pyrrolo[1,2-c]imidazol-2(3H)-yl)-2-methyl-2-(methylsulfonyl)-N-((tetrahydro-2H-pyran-2-yl)oxy)butanamide], the “MIC for E. coli ATCC25922” value (E. coli ATCC25922) was 8 µg/mL, the “MIC for K. Pneumoniae A-651” value (K. pneumoniae A-651) was 8 µg/mL and the “MIC for P. aeruginosa ATCC27853” value (P. aeruginosa ATCC27853) was 1 µg/mL.

`CC(=O)N1CC(C#CC#Cc2cc3n(c2)C(=O)N(CC[C@](C)(C(=O)NO)S(C)(=O)=O)C3)C1` [Example 32, (2R)-4-(6-((1-acetylazetidin-3-yl)buta-1,3-diyn-1-yl)-3-oxo-1H-pyrrolo[1,2-c]imidazol-2(3H)-yl)-N-hydroxy-2-methyl-2-(methylsulfonyl)butanamide] showed an MIC (E. coli ATCC25922) of 1 µg/mL (≈ 2.17 µM), an MIC (K. pneumoniae A-651) of 2 µg/mL (≈ 4.34 µM) and an MIC (P. aeruginosa ATCC27853) of 1 µg/mL (≈ 2.17 µM).
